Results from patent US11938189B2, “Compositions and methods for stabilizing protein-containing formulations” (Genentech, Inc., priority 2010, dated 2024).

Key:
[1] = in water at 20-25° C., cited from earlier work; for CMC Value (% w/v): cells printed without %
[2] = system: anti-MUC16 monoclonal antibody; test: Shaking-induced aggregation (150 rpm), percent monomer by size-exclusion chromatography; assay type: physicochemical; details: surfactant at one half of its CMC; shaking 150 rpm, 37° C., 64 hours; FIG. 1
Procedure: In this set of studies, a buffered solution (20 mM sodium phosphate buffer, pH 7.4) of monoclonal antibody was subjected to shaking on an orbital shaker at 150 rpm, at a controlled temperature of 37° C. These studies were carried out using a 3 ml solution fill of the antibody solution in a 6 cc glass vial. Samples were withdrawn at regular intervals and analyzed for percent monomer using size-exclusion chromatography. Various surfactants of the class of alkylglycosides were evaluated for their effectiveness to prevent protein aggregation during shaking. The surfactants were used at concentrations below their respective critical micelle concentration (CMC) or above their respective CMC.
The surfactants were employed at one half the concentration of their respective CMC values, i.e., 1.1 mM (0.035% w/v) n-decyl-β-D-glucopyranoside, 9 mM (0.24%) n-octyl-β-D-glucopyranoside and 0.04 mM (0.0035%) polysorbate 20.

[3] = system: anti-CD11a monoclonal antibody; test: Oxidation of Met256 on storage in surfactant-containing antibody solution; assay type: physicochemical; details: 0.1% w/v surfactant, pH 6.0, stored at 5° C. or 40° C. for 2 or 4 weeks; FIG. 15
Procedure: In a second experiment, oxidation of the Met256 amino acid residue in an anti-CD11a monoclonal antibody in solutions containing either n-decyl-β-D-glucopyranoside, n-octyl-β-D-glucopyranoside, or polysorbate 20 was evaluated. For this purpose, 3 ml of the buffered antibody solution (pH 6.0) containing 0.1% w/v of the surfactant was stored in 6 cc vials at either 5° C. or 40° C. for a period of either 2 or 4 weeks.

[4] = system: Humanized anti-oxidized LDL monoclonal antibody; test: Light-induced oxidation of tryptophan residues (LC/MS/MS tryptic peptide map); assay type: physicochemical; details: Light 24 hrs
Procedure: MAb samples and light treatment: Humanized anti-oxidized LDL monoclonal antibody, was produced at Genentech, Inc. from a CHO cell line. Three independent samples were prepared for photostability studies: 1) control sample, vial wrapped with aluminum foil; 2) test sample, vial light exposed (unwrapped); 3) test sample, vial light exposed (unwrapped) containing the specified non-ionic surfactant. Both control & light exposed samples were kept in a light box for 24 hrs. Light exposure following ICH guideline with following setting for a Atlas SUNTEST CPS+Light Box: Irradiance level=250 watts/square meter; Time set for 24 hours; Total UV dose=538 watt-hours/square meter; Total visible dose=1,320,000 lux-hours.
LC/MS/MS of tryptic MAb peptide map: Samples were digested with trypsin after reduction and alkylation. The resulting peptides were analyzed with a Thermo LTQ-Orbitrap mass spectrometer coupled with an Agilent 1200 capillary HPLC system. HPLC column: Jupiter 5 um C18 250×1.0 mm, flow rate: 70 uL/min, column oven temperature: 55° C. Solvent A: 0.1% TFA in water, B: 0.09% TFA in 90% ACN. Orbitrap setting: MS resolution 60000, MS/MS collected in data dependent mode, using LTQ.
The effect of light, and the protective effect of non-ionic surfactants, on the oxidation of tryptophan residues on an anti-oxidized LDL antibody was determined.

SMILES | CMC Value [1] [mM] | CMC Value (w/v) [1] [% w/v] | other results
OC[C@H]1O[C@H](O[C@H]2[C@H](O)[C@@H](O)[C@H](OCCC3CCCCC3)O[C@@H]2CO)[C@H](O)[C@@H](O)[C@@H]1O [2-cyclohexyl-ethyl-β-D-maltoside] | 120 | 5.4 | 
CC(CCO[C@@H]1O[C@H](CO)[C@@H](O)[C@H](O)[C@H]1O)C1CCCCC1 (stereo partly drawn) [3-cyclohexyl-1-butyl-β-D-glucoside] | 1.8 | 0.058 | 
OC[C@H]1O[C@@H](OCCCC2CCCCC2)[C@H](O)[C@@H](O)[C@@H]1O [3-cyclohexyl-1-propyl-β-D-glucoside] | 28 | 0.86 | 
OC[C@H]1O[C@H](O[C@H]2[C@H](O)[C@@H](O)[C@H](OCCCC3CCCCC3)O[C@@H]2CO)[C@H](O)[C@@H](O)[C@@H]1O [3-cyclohexyl-propyl-β-D-maltoside] | 34.5 | 1.6 | 
OC[C@H]1O[C@H](O[C@H]2[C@H](O)[C@@H](O)[C@H](OCCCCC3CCCCC3)O[C@@H]2CO)[C@H](O)[C@@H](O)[C@@H]1O [4-cyclohexyl-butyl-β-D-maltoside] | 7.6 | 0.37 | 
OC[C@H]1O[C@H](O[C@H]2[C@H](O)[C@@H](O)[C@H](OCCCCCC3CCCCC3)O[C@@H]2CO)[C@H](O)[C@@H](O)[C@@H]1O [5-cyclohexyl-pentyl-β-D-maltoside] | 2.4 | 0.12 | 
OC[C@H]1O[C@H](O[C@H]2[C@H](O)[C@@H](O)[C@H](OCC3CCCCC3)O[C@@H]2CO)[C@H](O)[C@@H](O)[C@@H]1O [cyclohexyl-methyl-β-D-maltoside] | 340 | 15 | 
CCCCCCCCCCO[C@@H]1O[C@H](CO)[C@@H](O)[C@H](O)[C@H]1O [n-decyl-β-D-glucopyranoside] | 2.2 | 0.07 | prevention of shaking-induced loss of percent monomer [2]: effective in preventing loss of monomer; increase in percent oxidized Met256 vs initial sample [3]: no significant increase
CCCCCCCCCCO[C@@H]1O[C@H](CO)[C@@H](O[C@H]2O[C@H](CO)[C@@H](O)[C@H](O)[C@H]2O)[C@H](O)[C@H]1O [n-decyl-β-D-maltopyranoside] | 1.8 | 0.087 | 
CCCCCCCCCCCCO[C@@H]1O[C@H](CO)[C@@H](O)[C@H](O)[C@H]1O [n-dodecyl-β-D-glucopyranoside, reference compound] | 0.19 |  | CMC Value (% w/v) [1]: 0.0066 % w/v; % Oxidized Trp33 ([4]; 0.03 mM surfactant): 0.4%; % Oxidized Trp92 ([4]; 0.03 mM surfactant): 8.9%
CCCCCCCCCCCCO[C@@H]1O[C@H](CO)[C@@H](O[C@H]2O[C@H](CO)[C@@H](O)[C@H](O)[C@H]2O)[C@H](O)[C@H]1O [n-dodecyl-β-D-maltopyranoside, reference compound] | 0.17 |  | CMC Value (% w/v) [1]: 0.0087 % w/v; % Oxidized Trp33 ([4]; 0.03 mM surfactant): 0.0%; % Oxidized Trp92 ([4]; 0.03 mM surfactant): 10.6%; % Oxidized Trp33 ([4]; 0.39 mM surfactant): 0.1%; % Oxidized Trp92 ([4]; 0.39 mM surfactant): 2.7%
CCCCCCCO[C@@H]1O[C@H](CO)[C@@H](O)[C@H](O)[C@H]1O [n-heptyl-β-D-glucopyranoside] | 70 | 1.9 | 
CCCCCCO[C@@H]1O[C@H](CO)[C@@H](O)[C@H](O)[C@H]1O [n-hexyl-β-D-glucopyranoside] | 250 | 6.6 | % Oxidized Trp33 ([4]; 0.39 mM surfactant): 0.3%; % Oxidized Trp92 ([4]; 0.39 mM surfactant): 4.9%; % Oxidized Trp33 ([4]; 300 mM surfactant): 0.0%; % Oxidized Trp92 ([4]; 300 mM surfactant): 1.6%
CCCCCCO[C@@H]1O[C@H](CO)[C@@H](O[C@H]2O[C@H](CO)[C@@H](O)[C@H](O)[C@H]2O)[C@H](O)[C@H]1O [n-hexyl-β-D-maltopyranoside] | 210 | 8.9 | % Oxidized Trp33 ([4]; 0.39 mM surfactant): 0.3%; % Oxidized Trp92 ([4]; 0.39 mM surfactant): 5.7%; % Oxidized Trp33 ([4]; 300 mM surfactant): 0.0%; % Oxidized Trp92 ([4]; 300 mM surfactant): 2.2%
CCCCCCCCCO[C@@H]1O[C@H](CO)[C@@H](O)[C@H](O)[C@H]1O [n-nonyl-β-D-glucopyranoside] | 6.5 | 0.2 | 
CCCCCCCCCO[C@@H]1O[C@H](CO)[C@@H](O[C@H]2O[C@H](CO)[C@@H](O)[C@H](O)[C@H]2O)[C@H](O)[C@H]1O [n-nonyl-β-D-maltopyranoside] | 6 | 0.28 | 
CCCCCCCCO[C@@H]1O[C@H](CO)[C@@H](O[C@H]2O[C@H](CO)[C@@H](O)[C@H](O)[C@H]2O)[C@H](O)[C@H]1O [n-octyl-β-D-maltopyranoside] | 19.5 | 0.89 | 
